Experimental data taken from patent US20110082203A1, “PROCESS TO DIAGNOSE OR TREAT BRAIN INJURY” (priority 2008, published 2011).

Experiments:
[1] = Body weight loss after controlled cortical impact (CCI) TBI; type: in vivo, rat; conditions: 5 mg/kg i.p. five minutes prior to TBI
Method: (§1) In vivo model of TBI injury model: A controlled cortical impact (CCI) device is used to model TBI on rats as previously described (Pike et al, 1998). Adult male (280-300 g) Sprague-Dawley rats (Harlan: Indianapolis, Ind.) are anesthetized with 4% isoflurane in a carrier gas of 1:1 O2/N2O (4 min.) and maintained in 2.5% isoflurane in the same carrier gas. Core body temperature is monitored continuously by a rectal thermistor probe and maintained at 37±1° C. by placing an adjustable temperature controlled heating pad beneath the rats. Animals are mounted in a stereotactic frame in a prone position and secured by ear and incisor bars. Following a midline cranial incision and reflection of the soft tissues, a unilateral (ipsilateral to site of impact) craniotomy (7 mm diameter) is performed adjacent to the central suture, midway between bregma and lambda. The dura mater is kept intact over the cortex. Brain trauma is produced by impacting the right (ipsilateral) cortex with a 5 mm diameter aluminum impactor tip (housed in a pneumatic cylinder) at a velocity of 3.5 m/s with a 1.6 mm compression and 150 ms dwell time.
Subjects are administered CCI essentially as described in Example 2 and CSF is prepared as described in Example 4. […] The vehicle-treatment group receives an equal volume i.p. injection of isotonic saline. […]

[2] = system: α-II spectrin breakdown products (SBDP); conditions: 5 mg/kg i.p. five minutes prior to TBI
Method: as §1
Tissue and Sample Preparation: At the appropriate time points (2, 6, 24 hours and 2, 3, 5 days) after injury, animals are anesthetized and immediately sacrificed by decapitation. Brains are quickly removed, rinsed with ice cold PBS and halved. […]

[3] = system: Fluoro-Jade positive neurons; test: Fluoro-Jade staining of degenerating neurons following CCI, counted by optical fractionator; type: in vivo, rat
Method: Fluoro-Jade is used to determine whether the presence of dicyclomine affects cell death following CCI. Experimental procedures are performed as described by Cox, C D, et al. 2008. Briefly, at 24 hours (±1 hr) following the perfusion, brains are rinsed in 0.1M PB (5 minutes×2), cryoprotected in 10% and 30% solutions of sucrose in 0.1M PB for 1 hour and 48 hours, respectively, and stored in the 30% sucrose/PB solution at −80° C. The brains are blocked and sectioned caudorostrally in 45 μm increments from Bregma—1.9 mm to Bregma—4.15 mm using a sliding microtome (American Optical Corp., model 860). The tissue sections are then mounted onto slides using distilled water and allowed to dry. For the Fluoro-Jade staining procedure (Schmued et al., 1997), the sections are rehydrated using successive 5 minute rinses in 100%, 75%, 50%, and 25% ethanol followed by 3 minutes in dH2O, placed in 0.06% KMNO4 for 15 minutes followed by 2 minutes in dH2O, and then stained in 0.0006% Fluoro-Jade B solution in 0.1% acetic acid for 30 minutes. The slides are air-dried overnight, immersed in xylene, and coverslipped with DPX.
The total number of Fluoro-Jade stained cells within the CA2/CA3 region of the dorsal hippocampus for each subject is estimated using the optical fractionator technique (West et al., 1991) with a computer-based system (Stereologer version 1.3, Systems Planning and Analysis, Inc., Alexandria, Va.). The border of the dorsal CA2/3 pyramidal cell layer within each section was outlined using a 2× objective, and the cells are then manually counted at the 40× magnification. For the cortical cell counts, a site of highly localized Fluoro-Jade positivity observed in the cortex adjacent to the site of impact serves as the ROI: the region was outlined at the 2× magnification and cells were quantified at 40× as with the hippocampal region. A numerical estimate of the total number of cells in each region of interest for each subject is calculated by the software using the equation:
Nobj=(N)(1/SSF)(1/ASF)(1/TSF)
Where N represents the sum of all objects counted for the subject, SSF the section sampling fraction, ASF the area sampling fraction, and TSF the thickness sampling fraction.

CCN(CC)CCOC(=O)C1(C2CCCCC2)CCCCC1 [Dicyclomine, dicyclomine]
% Body Weight Loss ([1]; mean +/- spread, * p<0.01 vs saline): *7.8 +/− 2.08% | Percent body weight loss compared to the saline-treated group ([1]; p<0.01): significantly reduced | Production of SBDPs in CSF following TBI [2]: inhibits production of SBDPs | Mean number of Fluoro-Jade positive neurons, hippocampal ROI ([3]; CA2/CA3 dorsal hippocampus, 24 hours post-TBI, 5 mg/kg i.p., vehicle 2982): 2640 | Mean number of Fluoro-Jade positive neurons, cortical ROI ([3]; cortex adjacent to impact site, 24 hours post-TBI, 5 mg/kg i.p., vehicle 84392): 84452 | Effect on neuronal cell viability ([3]; following TBI): no effect | Difference in Fluoro-Jade positive neurons between treatment groups (T-test) ([3]; hippocampal and cortical ROIs, dicyclomine vs vehicle): no significant difference
